{
  "source": "paper PMC11742280",
  "about": "“A phase I study of MLN4924 and belinostat in relapsed/refractory acute myeloid leukemia or myelodysplastic syndrome” (Cancer Chemotherapy and Pharmacology, 2025)",
  "key": {"high-risk MDS": {"test_system": "high-risk MDS", "set-up": "method as in PMID 35728048", "conditions": "pevonedistat 20 mg/m^2 D1,3,5 in combination with azacitidine; subset with high-risk MDS, post-hoc analysis, non-statistically significant improvement; cited from earlier work"}, "AML": {"test_system": "AML", "set-up": "method as in PMID 25733005", "conditions": "cited from earlier work"}, "[1]": {"test_system": "xenograft models of solid tumors, lymphoma, and AML", "set-up": "method as in PMID 20203261, PMID 20525923, PMID 23633453, PMID 22562464", "conditions": "cited from earlier work"}, "[2]": {"experiment": "Plasma pharmacokinetics of pevonedistat (LC/MS/MS, noncompartmental analysis)", "assay_type": "in vivo, human", "conditions": "for Cmax: read-out: preEOI Cmax (peak plasma concentration); for clearance: read-out: Cl (systemic clearance) (converted)", "procedure": "Plasma was stored at − 80 °C until analysis.\nPharmacokinetic parameters were summarized using descriptive statistics."}, "[3]": {"set-up": "method as in PMID 31097586, PMID 33441097", "conditions": "e.g. value, compared with clinical Cmax; cited from earlier work"}, "[4]": {"conditions": "cycle 1 day 1, dose level 1, pevonedistat 20 mg/m^2 IV (belinostat 800 mg/m^2), n=2, actual values"}, "[5]": {"conditions": "human, plasma, iv, 37 mg/m2, cycle 1 day 1, pevonedistat 37 mg/m^2 IV, all 37 mg/m^2 patients (dose levels 3-4), mean±SD, n=6"}, "[6]": {"conditions": "human, plasma, iv, cycle 1 day 1, dose level 1, pevonedistat 20 mg/m^2 IV (belinostat 800 mg/m^2), n=2, actual values"}, "[7]": {"conditions": "human, plasma, iv, cycle 1 day 1, dose level 2, pevonedistat 25 mg/m^2 IV (belinostat 800 mg/m^2), mean±SD, n=3"}, "[8]": {"conditions": "human, plasma, iv, cycle 1 day 1, dose level 3, pevonedistat 37 mg/m^2 IV (belinostat 800 mg/m^2), mean±SD, n=3"}, "[9]": {"conditions": "human, plasma, iv, cycle 1 day 1, dose level 4, pevonedistat 37 mg/m^2 IV (belinostat 1000 mg/m^2), mean±SD, n=3"}},
  "note": "Like-named read-outs stand apart in the source and are kept apart here.",
  "data": [
    {"smiles": "NS(=O)(=O)OC[C@@H]1C[C@@H](n2ccc3c(N[C@H]4CCc5ccccc54)ncnc32)C[C@@H]1O", "note": "[Pevonedistat]", "values": [
      {"measurement": "Survival", "setting": "high-risk MDS", "result": 23.8, "unit": "mos"},
      {"measurement": "Complete remission (CR) + partial remission (PR)", "setting": "AML; single agent in AML", "result": 17, "unit": "%"},
      {"measurement": "Maximum Tolerated Dose", "setting": "AML; single agent, D1,3,5 dosing schedule in a 21-day cycle", "result": 59, "unit": "mg/m^2"},
      {"measurement": "Effect on tumor growth", "setting": "[1]", "result": "inhibition of tumor growth"},
      {"measurement": "Pevonedistat AUCINF by BSA-based dose", "setting": "[2]; 37 mg/m^2 compared with 20 or 25 mg/m^2, p = 0.02, Kruskal–Wallis", "result": "significantly higher"},
      {"measurement": "AUCINF", "setting": "[2]; [4]", "result": 2.85, "unit": "µM·h"},
      {"measurement": "Cl (systemic clearance)", "setting": "[2]; [4]", "result": 28.5, "unit": "L/h"},
      {"measurement": "T1/2", "setting": "[2]; [4]", "result": 6.12, "unit": "h"},
      {"measurement": "Cmax", "setting": "[2]; [4]", "result": 311, "unit": "nM"},
      {"measurement": "Cl (systemic clearance)", "setting": "[2]; cycle 1 day 1, dose level 3, pevonedistat 37 mg/m^2 IV (belinostat 800 mg/m^2), mean±SD, n=3", "result": "34.9 ± 2.9 (3) L/hr"},
      {"measurement": "Cl (systemic clearance)", "setting": "[2]; cycle 1 day 1, dose level 4, pevonedistat 37 mg/m^2 IV (belinostat 1000 mg/m^2), mean±SD, n=3", "result": "35.5 ± 8.3 (3) L/hr"},
      {"measurement": "Cl (systemic clearance)", "setting": "[2]; cycle 1 day 1, pevonedistat 37 mg/m^2 IV, all 37 mg/m^2 patients (dose levels 3-4), mean±SD, n=6", "result": "35.2 ± 5.6 (6) L/hr"},
      {"measurement": "Pharmacokinetic parameters compared between dose levels", "setting": "[2]; dose levels 1-4, Kruskal–Wallis", "result": "not different by dose level"},
      {"measurement": "AUC(0-inf)", "setting": "[2]; [5]", "result": "4.78 ± 0.958", "unit": "µM·h"},
      {"measurement": "half-life", "setting": "[2]; [5]", "result": "5.79 ± 0.99", "unit": "h"},
      {"measurement": "Cmax", "setting": "[2]; [5]", "result": "869 ± 290", "unit": "nM"},
      {"measurement": "Tmax", "setting": "[2]; human, plasma, iv, 37 mg/m2, cycle 1 day 1, pevonedistat 37 mg/m^2 IV, all 37 mg/m^2 patients (dose levels 3-4), median (range; n)", "result": 0.9, "unit": "h"},
      {"measurement": "AUC(0-inf)", "setting": "[2]; [6]", "result": 2.28, "unit": "µM·h"},
      {"measurement": "Tmax", "setting": "[2]; [6]", "result": 0.4, "unit": "h"},
      {"measurement": "half-life", "setting": "[2]; [6]", "result": 5.89, "unit": "h"},
      {"measurement": "clearance", "setting": "[2]; [6]", "result": 627, "unit": "mL/min"},
      {"measurement": "Cmax", "setting": "[2]; [6]", "result": 278, "unit": "nM"},
      {"measurement": "AUC(0-inf)", "setting": "[2]; [7]", "result": "2.95 ± 0.666", "unit": "µM·h"},
      {"measurement": "half-life", "setting": "[2]; [7]", "result": "6.52 ± 1.38", "unit": "h"},
      {"measurement": "clearance", "setting": "[2]; [7]", "result": 625, "unit": "mL/min"},
      {"measurement": "Cmax", "setting": "[2]; [7]", "result": "372 ± 93.2", "unit": "nM"},
      {"measurement": "Tmax", "setting": "[2]; human, plasma, iv, cycle 1 day 1, dose level 2, pevonedistat 25 mg/m^2 IV (belinostat 800 mg/m^2), median (range; n)", "result": 0.6, "unit": "h"},
      {"measurement": "AUC(0-inf)", "setting": "[2]; [8]", "result": "4.95 ± 0.426", "unit": "µM·h"},
      {"measurement": "half-life", "setting": "[2]; [8]", "result": "5.97 ± 0.34", "unit": "h"},
      {"measurement": "Cmax", "setting": "[2]; [8]", "result": "897 ± 26", "unit": "nM"},
      {"measurement": "Tmax", "setting": "[2]; human, plasma, iv, cycle 1 day 1, dose level 3, pevonedistat 37 mg/m^2 IV (belinostat 800 mg/m^2), median (range; n)", "result": 0.9, "unit": "h"},
      {"measurement": "AUC(0-inf)", "setting": "[2]; [9]", "result": "4.6 ± 1.42", "unit": "µM·h"},
      {"measurement": "half-life", "setting": "[2]; [9]", "result": "5.61 ± 1.5", "unit": "h"},
      {"measurement": "Cmax", "setting": "[2]; [9]", "result": "841 ± 455", "unit": "nM"},
      {"measurement": "Tmax", "setting": "[2]; human, plasma, iv, cycle 1 day 1, dose level 4, pevonedistat 37 mg/m^2 IV (belinostat 1000 mg/m^2), median (range; n)", "result": 1, "unit": "h"},
      {"measurement": "Concentrations shown to exert activity in preclinical studies", "setting": "[3]", "result": "100 to 200", "unit": "nM"}
    ]}
  ]
}
